Assay results: article PMC9266914, “Broad Spectrum Functional Activity of Structurally Related Monoanionic Au(III) Bis(Dithiolene) Complexes” (International Journal of Molecular Sciences, 2022)
Values joined by “and” are separate entries in the source; they are usually repeats but may differ in a detail not shown here. Identical values can stand only once.

Legend:
E. coli ATCC25922 = experiment: MIC determination, E. coli; type: cell-based, Escherichia coli; conditions: MH broth, 22 h, 37 °C
Excerpt: The bacterial strains Escherichia coli ATCC25922 and Staphylococcus aureus Newman were used in this work and maintained in Lennox Broth (LB) solid medium, composed of 10 g/L tryptone, 5 g/L yeast extract, 5 g/L NaCl and 20 g/L agar. The fungal strains Candida albicans SC5134 and C. glabrata CBS138 were used in this work and maintained in YPD solid medium, composed of 20 g/L glucose, 20 g/L peptone, 10 g/L yeast extract and 15 g/L agar. The strains were isolated from human infections.
The antimicrobial activity of the complexes towards the bacterial and fungal strains was assessed by the determination of the Minimal Inhibitory Concentration (MIC) of each complex towards the indicated microbial strains, based on standard methods, and as previously described. […] Serial 1:2 dilutions of stock solutions were prepared for each complex in Mueller–Hinton (MH) broth (Fluka Analytical) or RPMI-1640 medium (Sigma) supplemented with 20 g/L glucose and buffered with 0.165 M morpholinepropanesulphonic acid (RPMIG) to pH 7.0. Solutions prepared with MH were used for testing bacteria, while those prepared with RPMIG were used for testing fungi. For antibacterial activity assays, the final concentrations ranged from 250 to 0.24 μg/mL (when stock solution final concentration was 10 mg/mL), 125 μg/mL to 0.12 μg/mL (when stock solution final concentration was 5 mg/mL) and 62.5 to 0.06 μg/mL (when stock solution final concentration was 2.5 mg/mL). For antifungal assays, the final concentrations ranged from 125 μg/mL to 0.12 μg/mL (when stock solution final concentration was 10 mg/mL), 62.5 to 0.06 μg/mL (when stock solution final concentration was 5 mg/mL) and 31.25 to 0.03 μg/mL (when stock solution final concentration was 2.5 mg/mL). Then, 100 μL aliquots of adequately diluted bacterial suspensions of S. aureus Newman or E. coli ATCC 25922 were mixed with the MH serially diluted complexes aliquots to obtain 5 × 10^5 CFU/mL. In the case of fungi, cultures were diluted to obtain a final optical density of 0.025, measured at 530 nm (OD530). Bacterial suspensions were prepared from cultures grown for 5 h in MH broth at 37 °C and 250 rev·min^−1 and adequately diluted with fresh MH medium, while fungal suspensions were prepared from overnight cultures grown in YPD broth at 30 °C and 250 rev.min^−1 and diluted in buffered RPMIG. After 22 h of incubation at 37 °C (bacteria) or 24 h at 35 °C (fungi), the wells’ content was resuspended by pipetting and the OD640 (bacteria) or OD530 (fungi) were measured in a SPECTROstar Nano microplate reader (BMG Labtech).
At least three independent experiments were performed in duplicate for each complex under study. […] Positive (no complex) and negative controls (no inoculum) were performed for each experiment. The effect of 5% (V/V) DMSO on microbial growth was also assessed.

[1] = molecular target: human serum albumin (HSA) (Homo sapiens, UniProt P02768); experiment: HSA fluorescence quenching (Stern-Volmer); type: binding; conditions: for Stern Volmer quenching constant KSV / association constant Ka / bimolecular quenching constant Kq / number of binding sites n: HSA, Hepes pH 7.4; for HSA fluorescence intensity quenched: two molar excesses of complex, 37 °C, 24 h, pH 7.4
Protocol: Stock solutions of HSA were prepared by dissolving HSA in 10 mM Hepes buffer, pH 7.4. The protein concentration was determined spectrophotometrically using the molar absorption coefficient of 36,500 M^−1 cm^−1 at 280 nm. The complexes [P][AuSEt(=S)], [P][AuSEt(=Se)], [P][AuSeiPr(=S)] and [P][AuSBu(=S)] were first prepared at 1 mM concentration in DMSO due to the limited solubility of the complexes in aqueous media. A series of complex–protein solutions were prepared by adding different concentrations of gold complexes solutions to the protein solution previously prepared. After preparation of the batch complex–protein solutions, the final concentration of DMSO was 1%. For fluorescence acquisition, the final HSA concentration was […] and the gold concentrations were […]. The mixtures were stirred to ensure the formation of a homogeneous solution and then kept in an incubator at 37 °C for 24 h in the dark to stabilize and enhance the interaction time. The reference solutions without protein were prepared following the procedures described above.
Steady-state fluorescence measurements were performed with a Fluorolog Model-3.22 spectrofluorimeter from Horiba Jobin Yvon at 25 °C. All the experiments were performed in Hellma® semi-micro fluorescence cuvettes (Suprasil® quartz, path-length 10 × 4 mm, chamber volume […]) with the 10 mm path length for the excitation of the sample. The excitation and emission bandwidths were fixed at 4.0 nm, and the excitation wavelength was 295 nm to excite selectively the tryptophan 214 residue, the emission spectra were recorded from 305 to 550 nm. Buffer solutions of gold complexes in corresponding concentrations were used as reference for the measured fluorescence spectra of protein–complex mixtures. The fluorescence intensities were corrected for the absorption of the exciting light and reabsorption of the emitted light to decrease the inner filter effect using UV–visible absorption data recorded for each sample on a Jasco V-660 spectrophotometer in the range of 260 to 800 nm with 1 mm path quartz cells. More details and all the equations can be found in the SI.
F0 = 1 + (K + K )[Q] + K K [Q]2 (S1) where F0 and F are the fluorescence intensities of HSA in the absence and presence of a quencher (Au complex), respectively; KD and KS represents the dynamic and static constants, respectively, and [Q] is the quencher concentration.
When the fluorescence intensity quenching occurs by a purely static or dynamic mechanism, the following Stern-Volmer equation can be used:
F0 = 1 + K τ [Q] = 1 + K [Q] (S2) where Kq, 0 and KSV represents the bimolecular quenching constant, the fluorophore lifetime in the absence of the quencher and the Stern -Volmer quenching constant, respectively.
The relationship between the fluorescence intensity of the protein and the complex concentrati on is given by the equation:
log (F0 − F) = log K + n log[Q] […]
Table S1. Values of Stern Volmer quenching constant (Ksv), association constant (Ka) and number of binding sites (n) for the interaction for HSA with gold […]

Chain of human serum albumin (HSA) (P02768 25-609): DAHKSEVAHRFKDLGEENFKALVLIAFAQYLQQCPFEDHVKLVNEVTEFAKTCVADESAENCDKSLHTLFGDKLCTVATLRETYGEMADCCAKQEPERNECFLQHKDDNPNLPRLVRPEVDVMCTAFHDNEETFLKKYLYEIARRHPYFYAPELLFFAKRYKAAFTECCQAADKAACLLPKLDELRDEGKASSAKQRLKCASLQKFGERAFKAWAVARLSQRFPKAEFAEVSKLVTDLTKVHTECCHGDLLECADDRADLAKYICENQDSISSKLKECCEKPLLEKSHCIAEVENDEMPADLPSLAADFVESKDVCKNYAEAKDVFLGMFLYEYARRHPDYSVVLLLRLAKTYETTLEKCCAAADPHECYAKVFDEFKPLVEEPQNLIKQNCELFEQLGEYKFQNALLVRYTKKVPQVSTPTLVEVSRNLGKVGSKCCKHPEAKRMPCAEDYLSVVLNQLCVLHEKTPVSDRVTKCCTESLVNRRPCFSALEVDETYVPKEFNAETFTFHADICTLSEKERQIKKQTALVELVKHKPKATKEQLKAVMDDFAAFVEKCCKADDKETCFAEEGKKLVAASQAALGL

For `CC(=O)OC[C@H]1O[C@@H]([S-])[C@H](OC(C)=O)[C@@H](OC(C)=O)[C@@H]1OC(C)=O.CCP(CC)CC.[Au+]` [Auranofin, reference compound], the “MIC E. coli ATCC25922” value (E. coli ATCC25922) was 35.5 µg/mL and 35.5 ± 0.6 µg/mL.
With `CCCCn1c2c(sc1=S)[S][Au-]1([S]c3sc(=S)n(CCCC)c3[S]1)[S]2.c1ccc([P+](c2ccccc2)(c2ccccc2)c2ccccc2)cc1` [[P][AuSBu(=S)]] the “Stern Volmer quenching constant KSV” value [1] was 14.9 ± 0.13 x 105 L mol-1, the “association constant Ka” value [1] was 9.34 ± 0.01 x 104 L mol-1 and the “bimolecular quenching constant Kq” value [1] was 14.9 ± 0.05 x 1013 L mol-1 s-1. For the same compound, the “number of binding sites n” value [1] was 0.738, the “HSA fluorescence intensity quenched” value [1] was 89.7% and the “MIC E. coli ATCC25922” value (E. coli ATCC25922) was over 125 µg/mL.
In the case of `CCn1c2c(sc1=S)[S][Au-]1([S]c3sc(=S)n(CC)c3[S]1)[S]2.c1ccc([P+](c2ccccc2)(c2ccccc2)c2ccccc2)cc1` [[P][AuSEt(=S)]], the “Stern Volmer quenching constant KSV” value [1] is reported as 6.48 ± 0.06 x 105 L mol-1, the “association constant Ka” value [1] is reported as 1.12 ± 0.02 x 104 L mol-1 and the “bimolecular quenching constant Kq” value [1] is reported as 6.48 ± 0.06 x 1013 L mol-1 s-1. For the same compound, the “number of binding sites n” value [1] was 1.179, the “HSA fluorescence intensity quenched” value [1] was 76.3% and the “MIC E. coli ATCC25922” value (E. coli ATCC25922) was over 125 µg/mL.
For `CCn1c2c(sc1=[Se])[S][Au-]1([S]c3sc(=[Se])n(CC)c3[S]1)[S]2.c1ccc([P+](c2ccccc2)(c2ccccc2)c2ccccc2)cc1` [[P][AuSEt(=Se)]], the “Stern Volmer quenching constant KSV” value [1] was 5.00 ± 0.17 x 105 L mol-1, the “association constant Ka” value [1] was 0.52 ± 0.03 x 104 L mol-1 and the “bimolecular quenching constant Kq” value [1] was 5.00 ± 0.17 x 1013 L mol-1 s-1. The “number of binding sites n” value [1] was 2.135, the “HSA fluorescence intensity quenched” value [1] was 79.4% and the “MIC E. coli ATCC25922” value (E. coli ATCC25922) was over 125 µg/mL.
For `CC(C)n1c2c(sc1=S)[Se][Au-]1([Se]c3sc(=S)n(C(C)C)c3[Se]1)[Se]2.c1ccc([P+](c2ccccc2)(c2ccccc2)c2ccccc2)cc1` [[P][AuSeiPr(=S)]], the “Stern Volmer quenching constant KSV” value [1] was 3.63 ± 0.04 x 105 L mol-1, the “association constant Ka” value [1] was 1.52 ± 0.01 x 104 L mol-1 and the “bimolecular quenching constant Kq” value [1] was 3.63 ± 0.01 x 1013 L mol-1 s-1. For the same compound, the “number of binding sites n” value [1] was 0.957, the “HSA fluorescence intensity quenched” value [1] was 60% and the “MIC E. coli ATCC25922” value (E. coli ATCC25922) was over 62.5 µg/mL.
